Where two headings read alike, the source gives them in different places.
Legend:
[1] = Free radical scavenging (DPPH); details: 0.1 mM DPPH in ethanol, 20 minutes, absorbance 517 nm; concentration causing 0.6 change in absorbance; read-out: Free radical scavenging ability EC50
Method: The antioxidant (free radical trapping) activity of test compounds was assessed using the stable free radical compound 2,2-diphenyl-1-picrylhydrazyl (DPPH). A stock solution of DPPH was prepared at a concentration of 0.1 mM in ethanol and mixed for 10 minutes prior to use. Test compounds at a concentration of 100 μM were reacted with DPPH for 20 minutes, after which time the absorbance at 517 nm was determined and the change in absorbance compared to a reagent blank (DPPH with ethanol alone). A dose response curve was produced for those compounds with free radical scavenging activity (ΔAbs>0.3) at 100 μM. The IC50 value was estimated as the concentration of test compound that caused a 0.6 change in absorbance (with 1.2 absorbance units representing total scavenging of the DPPH radical).

[2] = system: Neonatal foreskin fibroblasts (NFF); assay: Toxicity to normal cells: neonatal foreskin fibroblasts (MTT); format: cell-based; details: Homo sapiens, Fibroblast, 120 h, 5 days, mean ± SD, maximum concentration 150 μM
Method: (§1) Neonatal foreskin fibroblasts (NFF), a gift from Dr. Peter Parsons (Queensland Institute of Medical Research) were cultured in RPMI supplemented with 10% FBS (Gibco, Australia), penicillin (100 U/ml), streptomycin ([…]), L-glutamine (2 mM) and sodium bicarbonate (1.2 g/L), and cultured at 37° C. in a humidified atmosphere of 5% CO2 for 5 days. Test compounds were added in serial two-fold dilutions from 150 μM in triplicate. These assays were run twice.
(§2) Cell proliferation was assessed after the addition of 20 μl of 3-4,5 dimethylthiazol-2,5-diphenyl tetrazolium bromide (MTT, 5 mg/ml in PBS, Sigma) for 3 hrs at 37° C. according to manufacturer's instructions, by comparing mean absorbance values of test compounds with that of the control.

RAW 264.7 macrophage = assay: Toxicity to normal cells: RAW 264.7 macrophage (MTT); format: cell-based; details: Mus musculus, RAW264.7, 24 hours, single assay, maximum concentration 150 μM
Method: (§3) In a single assay, RAW 264.7 cells were seeded in 96-well plates at an appropriate cell density as determined from growth kinetics analysis and cultured for 24 hours in the absence and presence of the test compounds. Test compounds were added in serial two-fold dilutions from 150 μM in triplicate.
as §2

[3] = system: panel of normal, non-transformed cells; assay: Toxicity to normal cells, overall statement (NFF and RAW 264.7); format: cell-based; details: maximum concentration examined 150 μM
Method: as §1, §3, §2

HPAC = assay: Anti-cancer activity, pancreatic HPAC (MTT); format: cell-based; details: Homo sapiens, 120 h, 5 days, Geometric Mean ± SD (Log-normal Distribution)
Method: The human pancreatic cancer cell line, HPAC (CRL-2119) was routinely cultured in DMEM/Hams F-12 1:1 (Gibco) and supplemented with 15 mM HEPES, 0.002 mg/ml insulin (Sigma, Cat#I9278), 0.005 mg/ml transferrin (Sigma, Cat#T8158), 40 ng/ml hydrocortisone (Sigma, Cat#H0135) and 10 ng/ml epidermal growth factor (Sigma, Cat#E4269).
(§4) All cultures were supplemented with 10% FBS (Gibco, Cat#10099-158), 5000 U/ml penicillin and 5 mg/ml streptomycin (Gibco, Cat#15070), and cultured at 37° C. in a humidified atmosphere of 5% CO2.
(§5) IC50 values were determined for each cell line. Cells were seeded in 96-well plates at an appropriate cell density as determined from growth kinetics analysis and cultured for 5 days in the absence and presence of the test compounds. Cell proliferation was assessed after the addition of 20 μl of 3-4,5 dimethylthiazol-2,5-diphenyl tetrazolium bromide (MTT, 2.5 mg/ml in PBS, Sigma) for 3-4 hrs at 37° C. according to manufacturer's instructions. IC50 values were calculated from semi-log plots of % of control proliferation on the y-axis against log dose on the x-axis.

MDA-MB-468 = assay: Anti-cancer activity, breast MDA-MB-468 (MTT); format: cell-based; details: Homo sapiens, MDA-MB-468, 120 h, 5 days, Geometric Mean ± SD (Log-normal Distribution)
NCI-H460 = assay: Anti-cancer activity, lung NCI-H460 (MTT); format: cell-based; details: Homo sapiens, NCI-H460, 120 h, 5 days, Geometric Mean ± SD (Log-normal Distribution)
Method: The large cell lung cancer cell line NCI-H460 was cultured in RPMI 1640 medium additionally supplemented with 4.5 g/L glucose (Sigma, Cat#G8769), 5.0 g/L sodium pyruvate, 5 g/L sodium bicarbonate and buffered with 10 mM HEPES.
as §4, §5

PC-3 = assay: Anti-cancer activity, prostate PC-3 (MTT); format: cell-based; details: Homo sapiens, PC-3, 120 h, 5 days, Geometric Mean ± SD (Log-normal Distribution)
Method: (§6) The colon adeno-carcinoma cell line HT-29 (HTB-38™) and prostate adenocarcinoma cell line PC-3 (CRL-435™) were cultured in RPMI 1640 medium (Gibco, Cat#21870-076).
as §4, §5

[4] = system: various cell lines representative of different cancer indications; assay: Anti-cancer activity, summary over several cell lines; format: cell-based
Method: as §5

CP70 = assay: Anti-cancer activity, ovarian CP70 (MTT); format: cell-based; details: 5 days, Geometric Mean ± SD (Log-normal Distribution)
Method: The ovarian cancer cell line, CP70 was obtained as a gift from Dr. Gil Mor (Yale University) and routinely cultured in DMEM/Hams F-12 1:1 (Gibco, Cat#11320-082) supplemented with 10 mM HEPES (Sigma, Cat#H0887), 1× non essential amino acids (Sigma, Cat#M7145), 5.0 g/L sodium bicarbonate (Sigma, Cat#S5761), and 1 mM sodium pyruvate (Sigma, Cat#S8636).
as §4, §5

HT-29 = assay: Anti-cancer activity, colorectal HT-29 (MTT); format: cell-based; details: Homo sapiens, HT-29, 120 h, 5 days, Geometric Mean ± SD (Log-normal Distribution)
Method: as §6, §4, §5

MM200 = assay: Anti-cancer activity, melanoma MM200 (MTT); format: cell-based; details: 120 h, 5 days, Geometric Mean ± SD (Log-normal Distribution)
[5] = read-out: IC50 RAW 264.7 macrophage Unstimulated
[6] = read-out: IC50 RAW 264.7 macrophage with LPS
[7] = read-out: IC50 range against MDA-MB-468 and PC-3 cell lines

Row | SMILES | EC50 [1] | IC50 [2] | IC50 (RAW 264.7 macrophage; [5]) | IC50 (RAW 264.7 macrophage; [6]) | toxicity in the tests performed [3] | IC50 (HPAC) | IC50 (MDA-MB-468) | IC50 (NCI-H460) | IC50 (PC-3) | IC50 [4, 7] | IC50 (CP70; 120 h) | IC50 (HT-29) | IC50 (MM200) | IC50 ([4]; read-out: IC50 range against CP70, MDA-MB-468, NCI-H460 and PC-3 cell lines) | activity against the cell lines tested ([4]; HPAC, MDA-MB-468 and PC-3) | IC50 (CP70) | melting point | IC50 ([4]; read-out: IC50 range against all cell lines tested)
1 | Cc1c(O)ccc2c1OC(C)C(c1ccc(O)cc1)=C2 (stereo not drawn) [Compound 5] | 44.8 µM | > 150 µM | > 150 µM | > 150 µM | no toxicity | 84.4 ± 1.34 µM | 16.7 ± 1.18 µM | 41.1 ± 1 µM | 29 ± 1.05 µM | 2 to 29 µM | – | – | – | – | – | – | – | –
2 | CC1Oc2cc(O)ccc2C=C1c1ccc(O)cc1 (stereo not drawn) [Compound 3] | – | 140.3 ± 1.07 µM | 9.3 µM | 102 µM | mild to moderate toxicity | 59.3 ± 1.28 µM | 5.18 ± 1.09 µM | 12.6 ± 1.1 µM | 12 ± 1.22 µM | – | 8.39 ± 1.13 µM | 110.1 ± 1.03 µM | 69.4 ± 1.22 µM | 5 to 13 µM | – | – | – | –
3 | CC1Oc2cc(O)ccc2CC1c1ccc(O)cc1 (stereo not drawn) [Compound 8] | – | > 150 µM | > 150 µM | > 150 µM | no toxicity | ≥ 150 µM | 66.3 ± 1.05 µM | – | 78.7 ± 1.26 µM | – | – | – | – | – | little activity | – | – | –
4 | Cc1cc(O)cc2c1C=C(c1ccc(O)cc1)C(C)O2 (stereo not drawn) [Compound 7] | 38.4 µM | 126.6 ± 1.01 µM | 98.8 µM | 115 µM | mild to moderate toxicity | 60.5 ± 1.21 µM | 14.5 ± 1.07 µM | 51.5 ± 1.03 µM | 31.9 ± 1.47 µM | 14 to 32 µM | ~31 µM | ≥ 150 µM | 102 ± 1.27 µM | – | – | 31.1 ± 1.06 µM | – | –
5 | CC(=O)Oc1ccc(C2=Cc3ccc(OC(C)=O)cc3OC2CNC(=O)OC(C)(C)C)cc1 (stereo not drawn) [Example 23, 4′,7-Diacetoxy-2-(N—(BOC)aminomethyl)-isoflav-3-ene] | – | – | – | – | – | – | – | – | – | – | – | – | – | – | – | – | 52 to 54 °C | –
6 | C=CCC1Oc2cc(O)ccc2C=C1c1ccc(O)cc1 (stereo not drawn) [Compound 1] | 22.8 µM | 14.7 ± 3.05 µM | 4.7 µM | 2.2 µM | markedly toxic | 5.21 ± 1.88 µM | 3.25 ± 1.51 µM | 6.72 ± 1.05 µM | 3.96 ± 2.02 µM | – | 8.39 ± 2.8 µM | 9.36 ± 2.88 µM | 6.37 ± 1.39 µM | – | – | – | – | 3 to 10 µM
7 | CC1Oc2cc(O)ccc2C=C1c1cccc(O)c1 (stereo not drawn) [Compound 6] | 49.6 µM | 138.6 ± 1.05 µM | > 150 µM | 140 µM | mild to moderate toxicity | 74.6 ± 1.24 µM | 17 ± 1 µM | 114.8 ± 1 µM | 31.7 ± 1.05 µM | 14 to 32 µM | 72.9 ± 1.07 µM | ≥ 150 µM | 137.8 ± 1.16 µM | – | – | – | – | –
8 | COC1Oc2cc(O)ccc2C=C1c1ccc(O)cc1 (stereo not drawn) [Compound 13, 4′,7-Dihydroxy-2-methoxy-isoflav-3-ene] | 21.8 µM | – | – | – | – | – | – | – | – | – | – | – | – | – | – | – | – | –
9 | CC(=O)Oc1ccc(C2=Cc3ccc(OC(C)=O)cc3OC2C#N)cc1 (stereo not drawn) [Example 17, 4′,7-Diacetoxy-2-cyano-isoflav-3-ene] | – | – | – | – | – | – | – | – | – | – | – | – | – | – | – | – | 156 to 158 °C | –
10 | CCOC1Oc2cc(O)ccc2C=C1c1ccc(O)cc1 (stereo not drawn) [Compound 14, 2-Ethoxy-4′,7-dihydroxy-isoflav-3-ene] | 24.1 µM | – | – | – | – | – | – | – | – | – | – | – | – | – | – | – | – | –
11 | CCSC1Oc2cc(O)ccc2C=C1c1ccc(O)cc1 (stereo not drawn) [Compound 18, 2-Ethylthio-4′,7-dihydroxy-isoflav-3-ene] | 20 µM | – | – | – | – | – | – | – | – | – | – | – | – | – | – | – | – | –
12 | CCC1Oc2cc(O)ccc2C=C1c1ccc(O)cc1 (stereo not drawn) [Compound 2] | – | 97.8 ± 1 µM | 15.2 µM | 90.6 µM | mild to moderate toxicity | 56 ± 1.03 µM | 2.41 ± 1.26 µM | – | 4.14 ± 1.04 µM | 2 to 29 µM | – | – | 70.9 ± 1 µM | – | – | – | – | –
13 | CCC1Oc2cc(O)ccc2CC1c1ccc(O)cc1 (stereo not drawn) [Compound 4] | – | 122.2 ± 1 µM | 28.3 µM | > 150 µM | mild to moderate toxicity | 103 ± 1.16 µM | 7.23 ± 1.07 µM | – | 16.6 ± 1.08 µM | 2 to 29 µM | – | – | – | – | – | – | – | –
14 | Oc1ccc(C2=Cc3ccc(O)cc3OC2O)cc1 (stereo not drawn) [Compound 16, 2,4′,7-Trihydroxy-isoflav-3-ene] | – | – | – | – | – | – | – | – | – | – | – | – | – | – | – | – | > 325 °C | –
